The target of one assay is T1, GAL4-PPARγ chimeric nuclear receptor (human PPARγ ligand binding region) (Homo sapiens, UniProt P37231).
T1 construct: expressed in transfected cells; host or cells: HEK293EBNA cells
T1 sequence (P37231 174-475 isoform P37231-2): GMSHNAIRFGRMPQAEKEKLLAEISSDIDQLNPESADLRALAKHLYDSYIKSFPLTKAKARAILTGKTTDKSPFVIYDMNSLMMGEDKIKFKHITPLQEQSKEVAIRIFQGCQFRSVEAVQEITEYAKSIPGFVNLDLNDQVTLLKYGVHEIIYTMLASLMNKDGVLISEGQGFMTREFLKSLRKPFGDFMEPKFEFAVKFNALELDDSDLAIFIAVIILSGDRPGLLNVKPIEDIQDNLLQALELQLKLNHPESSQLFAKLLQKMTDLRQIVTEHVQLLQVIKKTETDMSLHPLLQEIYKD
In words: Transactivation assay of PPARγ by transient gene transfer (GAL4-PPARγ luciferase reporter). The note with it: HEK293EBNA cells, 24 hr; concentration showing 50% of efficacy; activity relative to pioglitazone 10 μmol/L = 100%. Type of assay: cell-based. As for the experimental part: The agonist activity of compound (I) to PPARγ was determined by a transactivation assay method using a chimeric nuclear receptor of a DNA binding region of a yeast transcription factor GAL4 and a PPARγ ligand binding region. Specifically, the PPARγ agonist activity of compound (I) was evaluated by the following method based on the method of Lehmann et al. (J Biol. Chem., 1995, vol. 270, page 12953).
HEK293EBNA cells cultured in Dulbecco's Modified Eagle medium (Invitrogen) containing 10 v/v % fetal calf serum (Invitrogen) were used. 30 mL of the above-mentioned cells (density: 1×10^5 cells/mL) were inoculated in a […] culture dish (Iwaki Glass), and cultured overnight. Using SuperFect Transfection Reagent (QIAGEN), a plasmid expressing a GAL4-PPARγ chimeric nuclear receptor fusing 174-475 amino acids, which are human PPARγ ligand binding region, and 1-147 amino acids, which are GAL4 DNA binding region, and a reporter plasmid expressing a GAL4 responsive luciferase were transiently introduced into the cells at a proportion of 4:1. After 5 hr from gene introduction, the cells were detached from the culture dish, and the detached cells (density: 2×10^4 cells/mL) were inoculated by 100 μL in each well of a 96 well white plate (SUMITOMO BAKELITE), and cultured overnight. The medium was removed, compound (I) diluted in various concentrations with serum-free Dulbecco's Modified Eagle medium was added by 100 μL, and the mixture was reacted under a 5% carbon dioxide gas stream (5% CO2) at 37° C. for 24 hr. On the other hand, as a positive control, 10 μmol/L of pioglitazone (100 μL) was added, and the mixture was reacted under a 5% carbon dioxide gas stream (5% CO2) at 37° C. for 24 hr. As a substrate of luciferase, 100 μL of Steady-Glo (Promega) was added to each well and the mixture was thoroughly stirred. Immediately thereafter, the chemical luminescence due to luciferase was measured using TopCount NTX (Packard).
The agonist activity (activity rate (%)) of compound (I) to PPARγ was calculated according to the following formula, as a relative activity when the agonist activity on addition of pioglitazone (10 μmol/L) was 100%.
Take `CCCc1nc2c(C)cccc2n1Cc1ccc2c(c1)CCc1ccccc1N2Cc1noc(=O)[nH]1` [Compound 6, 2-(4-methyl-2-propylbenzimidazol-1-yl)methyl-5-(5-oxo-4,5-dihydro-1,2,4-oxadiazol-3-yl)methyl-10,11-dihydro-5H-dibenzo[b,f]azepine]: a half-maximal response (EC50) required 97 nM.
`CCCc1nc2c(C)cccc2n1Cc1ccc2c(c1)CCc1ccccc1N2C(C)c1noc(=O)[nH]1` (stereo not drawn) [Compound 18, 2-(4-methyl-2-propylbenzimidazol-1-yl)methyl-5-[1-(5-oxo-4,5-dihydro-1,2,4-oxadiazol-3-yl)ethyl]-10,11-dihydro-5H-dibenzo[b,f]azepine]: the midpoint of the response, the EC50, lay at 48 nM.
`CCc1nc2c(C)cc(C)nc2n1Cc1ccc2c(c1)CCc1ccccc1N2C(C)c1nnn[nH]1` (stereo not drawn) [Compound 22, 2-(2-ethyl-5,7-dimethyl-3H-imidazo[4,5-b]pyridin-3-yl)methyl-5-[1-(1H-tetrazol-5-yl)ethyl]-10,11-dihydro-5H-dibenzo[b,f]azepine] gave an EC50 of 1000 nM.
Same read-out and setting: the same measure for `CCc1nc2c(Cl)cc(C)nc2n1Cc1ccc2c(c1)CCc1ccccc1N2C(C)c1nnn[nH]1` (stereo not drawn) [Compound 25, 2-(7-chloro-2-ethyl-5-methyl-3H-imidazo[4,5-b]pyridin-3-yl)methyl-5-[1-(1H-tetrazol-5-yl)ethyl]-10,11-dihydro-5H-dibenzo[b,f]azepine]: 233 nM; for `CCCc1nc(CC)c(C(=O)OCC)n1Cc1ccc2c(c1)CCc1ccccc1N2C(C)c1nnn[nH]1` (stereo not drawn) [Compound 28, 2-(5-ethoxycarbonyl-4-ethyl-2-propyl-1H-imidazol-1-yl)methyl-5-[1-(1H-tetrazol-5-yl)ethyl]-10,11-dihydro-5H-dibenzo[b,f]azepine]: 325 nM; for `CCCc1nc2c(C)cccc2n1Cc1ccc2c(c1)CCc1ccccc1/C2=C\c1noc(=O)[nH]1` [Compound 33, (E)-2-(4-methyl-2-propylbenzimidazol-1-yl)methyl-5-(5-oxo-4,5-dihydro-1,2,4-oxadiazol-3-yl)methylene-10,11-dihydro-5H-dibenzo[a,d]cycloheptene]: 103 nM.
Same read-out and setting: the same measure for `CCc1nc2c(C(F)(F)F)cc(C)nc2n1Cc1ccc2c(c1)CCc1ccccc1/C2=C\c1noc(=O)[nH]1` [Compound 37, (E)-2-(2-ethyl-5-methyl-7-trifluoromethyl-3H-imidazo[4,5-b]pyridin-3-yl)methyl-5-(5-oxo-4,5-dihydro-1,2,4-oxadiazol-3-yl)methylene-10,11-dihydro-5H-dibenzo[a,d]cycloheptene]: 415 nM; for `CCc1nc2c(C)cc(C)nc2n1Cc1ccc2c(c1)CCc1ccccc1/C2=C(/C)c1nnn[nH]1` [Compound 45, (E)-2-(2-ethyl-5,7-dimethyl-3H-imidazo[4,5-b]pyridin-3-yl)methyl-5-[1-(1H-tetrazol-5-yl)ethylidene]-10,11-dihydro-5H-dibenzo[a,d]cycloheptene]: 1090 nM; for `CCCc1nc2c(C)cccc2n1Cc1ccc2c(c1)CCc1ccccc1/C2=C/c1noc(=O)[nH]1` [Compound 51, (Z)-2-(4-methyl-2-propylbenzimidazol-1-yl)methyl-5-(5-oxo-4,5-dihydro-1,2,4-oxadiazol-3-yl)methylene-10,11-dihydro-5H-dibenzo[a,d]cycloheptene]: 94 nM.
In turn, `CCCc1nc2c(C(F)(F)F)cc(C)nc2n1Cc1ccc2c(c1)CCc1ccccc1/C2=C/c1noc(=O)[nH]1` [Compound 57, (Z)-2-(5-methyl-2-propyl-7-trifluoromethyl-3H-imidazo[4,5-b]pyridin-3-yl)methyl-5-(5-oxo-4,5-dihydro-1,2,4-oxadiazol-3-yl)methylene-10,11-dihydro-5H-dibenzo[a,d]cycloheptene] registered an EC50 of 440 nM.
`CCc1nc2c(C)cc(C)nc2n1Cc1ccc2c(c1)CCc1ccccc1/C2=C(\C)c1nn[nH]n1` [Compound 62, (Z)-2-(2-ethyl-5,7-dimethyl-3H-imidazo[4,5-b]pyridin-3-yl)methyl-5-[1-(1H-tetrazol-5-yl)ethylidene]-10,11-dihydro-5H-dibenzo[a,d]cycloheptene]: the EC50 was found to be 251 nM.
`CCCc1nc2c(C)cccc2n1Cc1ccc2c(c1)CCc1ccccc1C2Cc1noc(=O)[nH]1` (stereo not drawn) [Compound 64, 2-(4-methyl-2-propylbenzimidazol-1-yl)methyl-5-(5-oxo-4,5-dihydro-1,2,4-oxadiazol-3-yl)methyl-10,11-dihydro-5H-dibenzo[a,d]cycloheptene] yielded an EC50 of 73 nM.
The compound `Cc1cc(C)c2nc(C3CC3)n(Cc3ccc4c(c3)CCc3ccccc3N4C(C)c3noc(=O)[nH]3)c2n1` (stereo not drawn) [Compound 70, 2-(2-cyclopropyl-5,7-dimethyl-3H-imidazo[4,5-b]pyridin-3-yl)methyl-5-[1-(5-oxo-4,5-dihydro-1,2,4-oxadiazol-3-yl)ethyl]-10,11-dihydro-5H-dibenzo[b,f]azepine] returned an EC50 of 53 nM.
`Cc1cc(C)c2nc(C3CC3)n(Cc3ccc4c(c3)CCc3ccccc3N4C(C)c3nnn[nH]3)c2n1` (stereo not drawn) [Compound 71, 2-(2-cyclopropyl-5,7-dimethyl-3H-imidazo[4,5-b]pyridin-3-yl)methyl-5-[1-(1H-tetrazol-5-yl)ethyl]-10,11-dihydro-5H-dibenzo[b,f]azepine] gave an EC50 of 235 nM.
`CCCc1nc2c(C)cccc2n1Cc1ccc2c(c1)CCc1ccccc1/C2=C(/C)c1noc(=O)[nH]1` [Compound 83, (E)-2-(4-methyl-2-propylbenzimidazol-1-yl)methyl-5-[1-(5-oxo-4,5-dihydro-1,2,4-oxadiazol-3-yl)ethylidene]-10,11-dihydro-5H-dibenzo[a,d]cycloheptene]: it took 342 nM to reach a half-maximal effect (EC50).
Still for that read-out and setting: the same measure for `CCOc1nc2cccnc2n1Cc1ccc2c(c1)CCc1ccccc1/C2=C(/C)c1noc(=O)[nH]1` [Compound 91, (E)-2-(2-ethoxy-3H-imidazo[4,5-b]pyridin-3-yl)methyl-5-[1-(5-oxo-4,5-dihydro-1,2,4-oxadiazol-3-yl)ethylidene]-10,11-dihydro-5H-dibenzo[a,d]cycloheptene]: 1520 nM; for `CCc1nc2c(Cl)cc(C)nc2n1Cc1ccc2c(c1)OCc1ccccc1/C2=C\c1noc(=O)[nH]1` [Compound 106, (E)-3-(7-chloro-2-ethyl-5-methyl-3H-imidazo[4,5-b]pyridin-3-yl)methyl-11-(5-oxo-4,5-dihydro-1,2,4-oxadiazol-3-yl)methylene-6,11-dihydrodibenzo[b,e]oxepine]: 310 nM.
`C/C(=C1/c2ccccc2COc2cc(Cn3c(C4CC4)nc4c(C)cc(C)nc43)ccc21)c1noc(=O)[nH]1` [Compound 112, (E)-3-(2-cyclopropyl-5,7-dimethyl-3H-imidazo[4,5-b]pyridin-3-yl)methyl-11-[1-(5-oxo-4,5-dihydro-1,2,4-oxadiazol-3-yl)ethylidene]-6,11-dihydrodibenzo[b,e]oxepine]: the midpoint of the response, the EC50, lay at 1130 nM.
On the same count and under the same terms, then `Cc1cc(C)c2nc(C3CC3)n(Cc3ccc4c(c3)CCc3ccccc3N4Cc3nnn[nH]3)c2n1` [Compound S14, 2-(2-cyclopropyl-5,7-dimethyl-3H-imidazo[4,5-b]pyridin-3-yl)methyl-5-(1H-tetrazol-5-yl)methyl-10,11-dihydro-5H-dibenzo[b,f]azepine], with 4130 nM.
In the case of `CCc1nc2c(C)cc(C)nc2n1Cc1ccc2c(c1)CCc1ccccc1/C2=C/c1nnn[nH]1` [Compound S17, (Z)-2-(2-ethyl-5,7-dimethyl-3H-imidazo[4,5-b]pyridin-3-yl)methyl-5-(1H-tetrazol-5-yl)methylene-10,11-dihydro-5H-dibenzo[a,d]cycloheptene], the midpoint of the response, the EC50, lay at 1290 nM.

The next assay relates to spontaneously hypertensive rats (SHR). The assay is described as follows: Antihypertensive action by telemetry method. Type of assay: in vivo, rat. The note with it: oral once a day for 4 days, 24 hr averages. The text has this: A telemetry transmitter was indwelled in the abdominal artery of spontaneously hypertensive rats (SHR), and the blood pressure and heart rate were monitored. The rats were acclimated and reared for 4 weeks or more, and only the rats with hypertension were used for the test. Before drug administration, the rats were grouped such that the blood pressure and heart rate of each rat would be of the same levels between the groups. A solvent (0.5% methylcellulose solution) and a test compound were repeatedly administered orally once a day for 4 days. The average systolic blood pressure for 24 hr, average diastolic blood pressure for 24 hr and average heart rate for 24 hr were calculated on each administration day.
For the compound `CCc1nc2c(C)cc(C)nc2n1Cc1ccc2c(c1)CCc1ccccc1N2C(C)c1nnn[nH]1` (stereo not drawn) [Compound 22, 2-(2-ethyl-5,7-dimethyl-3H-imidazo[4,5-b]pyridin-3-yl)methyl-5-[1-(1H-tetrazol-5-yl)ethyl]-10,11-dihydro-5H-dibenzo[b,f]azepine], the “antihypertensive action (blood pressure, telemetry)” value is “antihypertensive action”.
The same measure, in the same setting: then `CCc1nc2c(Cl)cc(C)nc2n1Cc1ccc2c(c1)CCc1ccccc1N2C(C)c1nnn[nH]1` (stereo not drawn) [Compound 25, 2-(7-chloro-2-ethyl-5-methyl-3H-imidazo[4,5-b]pyridin-3-yl)methyl-5-[1-(1H-tetrazol-5-yl)ethyl]-10,11-dihydro-5H-dibenzo[b,f]azepine], with “antihypertensive action”.
Still for that read-out and setting: then `CCc1nc2c(C)cc(C)nc2n1Cc1ccc2c(c1)CCc1ccccc1/C2=C(/C)c1nnn[nH]1` [Compound 45, (E)-2-(2-ethyl-5,7-dimethyl-3H-imidazo[4,5-b]pyridin-3-yl)methyl-5-[1-(1H-tetrazol-5-yl)ethylidene]-10,11-dihydro-5H-dibenzo[a,d]cycloheptene], with “antihypertensive action”; and `Cc1cc(C)c2nc(C3CC3)n(Cc3ccc4c(c3)CCc3ccccc3N4C(C)c3nnn[nH]3)c2n1` (stereo not drawn) [Compound 71, 2-(2-cyclopropyl-5,7-dimethyl-3H-imidazo[4,5-b]pyridin-3-yl)methyl-5-[1-(1H-tetrazol-5-yl)ethyl]-10,11-dihydro-5H-dibenzo[b,f]azepine], with “antihypertensive action”.
